Toxic doses and inconclusive results are not listed. How the source made its calls: active means survival T/C of 150% or more; inactive means T/C below 125% in these data.
Test system: BALB/c mice, Madison 109 lung carcinoma i.m., survival
Experiment: NCI In Vivo Anticancer Drug Screen. Data for tumor model Madison 109 Lung Carcinoma (intramuscular) in BALB/CM mice
Details: endpoint: median survival time, schedule: Q01DX009 (ip), vehicle: saline, higher = longer survival
Method: The antitumor activity of compounds was measured in mice bearing transplantable tumors. Survival or tumor size were measured and the results are expressed as the measurement made in the treated group (T) divided by the measurement made in the vehicle treated control group (C). The tumor model used in this assay is Madison 109 Lung Carcinoma (intramuscular) in BALB/CM mice

Measured: T/C

NNC(=O)c1ccncc1
inactive: dose: 8.0 mg/kg/injection 101 % of control | dose: 16.0 mg/kg/injection 111 % of control | dose: 64.0 mg/kg/injection 107 % of control | dose: 128.0 mg/kg/injection 108 % of control

Reference: PubChem BioAssay AID302 (DTP/NCI, 2004)
